Experimental data from patent EP1140919B1, “1,4-DISUBSTITUTED CYCLOHEXANE DERIVATIVES FOR THE TREATMENT OF DEPRESSION” (Wyeth, priority 1999, dated 2000).

Tests used:
human 5-HT1A receptor = biological target: T1, human 5-HT1A receptor (Homo sapiens, UniProt P08908); experiment: 5-HT1A receptor binding assay with [3H]8-OH-DPAT on CHO cell membranes; conditions: @ 1000 nM, 5-HT1A.CHO cell membranes
T1 construct: expressed in transfected cells
T1 sequence (P08908 1-422): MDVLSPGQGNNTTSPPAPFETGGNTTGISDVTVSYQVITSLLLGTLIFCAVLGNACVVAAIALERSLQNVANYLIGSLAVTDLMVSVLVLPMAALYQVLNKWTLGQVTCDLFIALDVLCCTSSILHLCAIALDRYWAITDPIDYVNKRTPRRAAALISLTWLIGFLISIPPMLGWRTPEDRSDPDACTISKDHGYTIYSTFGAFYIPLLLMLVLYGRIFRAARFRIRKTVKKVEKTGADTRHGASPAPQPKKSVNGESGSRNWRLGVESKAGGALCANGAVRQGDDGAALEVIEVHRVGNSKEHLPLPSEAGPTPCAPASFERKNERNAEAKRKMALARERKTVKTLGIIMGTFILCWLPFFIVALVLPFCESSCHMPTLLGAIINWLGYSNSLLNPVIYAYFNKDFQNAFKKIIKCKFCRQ
Protocol: The PCR cloning of the human 5-HT1A receptor subtype from a human genomic library has been described previously by Chanda et al., Mol. Pharmacol., 43:516 (1993). A stable Chinese hamster ovary cell line expressing the human 5-HT1A receptor subtype (5-HT1A.CHO cells) was employed throughout this study. Cells were maintained in DMEM supplemented with 10% fetal calf serum, non-essential amino acids and penicillin/ streptomycin.
Cells were grown to 95-100% confluency as a monolayer before membranes were harvested for binding studies. Cells were gently scraped from the culture plates, transferred to centrifuge tubes, and washed twice by centrifugation (2000 rpm for 10 min., 4°C) in buffer (50 mM Tris; pH 7.5). The resulting pellets were aliquoted and maintained at -80•C. On the day of assay, the cells were thawed on ice, and resuspended in buffer. Studies were conducted using [^3H]8-OH-DPAT as the radioligand. The binding assay was performed in 96 well microtiter plates in a final total volume of 250 µL of buffer. Comparison experiments werc performed by using 7 concentrations of unlabelled drug and a final ligand concentration of 1.5 nM. Nonspecific binding was determined in the presence of 10 µM 5HT. Saturation analysis was conducted by using [^3H]8-OH-DPAT at concentrations ranging from 0.3-30 nM. […]

serotonin transporter = biological target: T2, serotonin transporter (Rattus norvegicus, UniProt P31652); experiment: Serotonin transporter binding assay with 3H-paroxetine on frontal cortical membranes; set-up: species or system male Sprague-Dawley rats
T2 construct: frontal cortical membranes prepared from male Sprague-Dawley rats; from tissue; host or cells: frontal cortex of male Sprague-Dawley rats (membranes)
Protocol: A protocol similar to that used by Cheetham et al., Neuropharmacol., 32:737 (1993) was used to determine the affinity of compounds for the serotonin transporter. Briefly, frontal cortical membranes prepared from male Sprague-Dawley rats were incubated with ^3H-paroxetine (0.1 nM) for 60 min at 25°C. All tubes also contained either vehicle, test compound (one to eight concentrations), or a saturating concentration of fluoxetine (10 µM) to define […]. All reactions were terminated by the addition of ice cold Tris buffer followed by rapid filtration using a Tom Tech filtration device to separate bound from free ^3H-paroxetine. Bound radioactivity was quantitated using a Wallac 1205 Beta Plate® counter. Nonlinear regression analysis was used to determine IC50 values which were converted to Ki values using the method set forth in Cheng and Prusoff, Biochem. Pharmacol., 22:3099 (1973) ([…].

T2 sequence (P31652 whole entry): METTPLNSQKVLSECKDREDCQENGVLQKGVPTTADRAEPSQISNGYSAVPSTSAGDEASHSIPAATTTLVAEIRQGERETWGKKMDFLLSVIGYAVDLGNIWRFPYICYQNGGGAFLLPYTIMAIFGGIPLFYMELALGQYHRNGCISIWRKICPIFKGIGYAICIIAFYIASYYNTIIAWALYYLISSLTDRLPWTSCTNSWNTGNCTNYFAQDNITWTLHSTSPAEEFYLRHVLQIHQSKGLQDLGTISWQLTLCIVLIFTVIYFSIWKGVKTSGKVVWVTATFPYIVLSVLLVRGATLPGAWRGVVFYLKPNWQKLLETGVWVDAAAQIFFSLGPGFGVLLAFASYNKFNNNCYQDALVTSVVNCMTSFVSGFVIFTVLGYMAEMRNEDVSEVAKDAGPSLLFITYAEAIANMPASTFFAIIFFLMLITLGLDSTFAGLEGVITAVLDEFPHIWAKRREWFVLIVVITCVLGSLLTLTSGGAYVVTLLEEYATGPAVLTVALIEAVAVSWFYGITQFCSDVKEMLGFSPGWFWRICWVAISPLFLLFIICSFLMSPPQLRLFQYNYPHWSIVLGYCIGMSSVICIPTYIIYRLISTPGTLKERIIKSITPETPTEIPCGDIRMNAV

**Q.** What does the source list for COc1ccsc1C1=CCN([C@H]2CC[C@@H](c3c[nH]c4ccc(F)cc43)CC2)CC1 [Example 1, 5-Fluoro-3-{(1,4-cis)-4-[4-(3-methoxy-thiophen-2-yl)-3,6-dihydro-2H-pyridin-1-yl]-cyclohexyl}-1H-indole]?
**A.** 5-HT1A (Ki, nM) (human 5-HT1A receptor): 48% @ 1000 nM; Ki (serotonin transporter): 2.5 nM

**Q.** COc1ccsc1C1=CCN([C@H]2CC[C@H](c3c[nH]c4ccc(F)cc43)CC2)CC1 [Example 2, 5-Fluoro-3-{(1,4-trans)-4-[4-(3-methoxy-thiophen-2-yl)-3,6-dihydro-2H-pyridin-1-yl]-cyclohexyl}-1H-indole] was tested. Which “ST (Ki, nM,)” value (serotonin transporter; @ 100 nM, 3H-paroxetine, rat frontal cortical membranes) did it give?
**A.** The value was 18% @ 100 nM.
